In patent US20240254129A1, “HETEROCYCLIC COMPOUNDS AND USES THEREOF” (Kumquat Biosciences Inc., priority 2021, published 2024):
Read-outs that look alike come from different tables or passages of the source.

What was measured:
[1] = molecular target: GST-tagged K-Ras mutant / His-tagged hSOS1 (Homo sapiens, UniProt P01116); test: HTRF assay, K-Ras mutant / SOS1 interaction; type: binding; conditions: read-out: IC50 against mutant Kras
How it was run: (§1)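 HTRF read-out of GST-tagged K-Ras (mutant or wildtype) binding His-hSOS1, via anti-GST-Eu donor and anti-6His-XL665 acceptor; buffer ~5 mM HEPES pH 7.4, ~150 mM NaCl, ~1 mM DTT, 0.05% BSA, 0.0025% Igepal. Read after ≥~10 min; duplicates, 10 μM to 0.01 μM; IC50 from 665/620 nm ratio.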

wildtype Kras / hSOS1 = molecular target: T1, wildtype Kras / hSOS1 (Homo sapiens, UniProt P01116); test: HTRF assay, wildtype Kras / SOS1 interaction; type: binding; conditions: read-out: IC50 against wildtype Kras
T1 construct: made in house; host or cells: E. coli BL21 (DE3)
T1 sequence (P01116 1-188 isoform P01116-2): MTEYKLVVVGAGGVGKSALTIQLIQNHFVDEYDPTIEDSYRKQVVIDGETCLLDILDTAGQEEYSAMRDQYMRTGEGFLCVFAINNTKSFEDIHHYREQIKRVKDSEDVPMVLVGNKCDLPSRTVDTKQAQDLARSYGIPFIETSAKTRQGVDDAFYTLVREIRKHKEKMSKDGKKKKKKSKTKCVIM
How it was run: as §1

[2] = compound nos. 102-196, general methodology of example 5

Sequence of GST-tagged K-Ras mutant / His-tagged hSOS1 (P01116 whole entry G12D, form open): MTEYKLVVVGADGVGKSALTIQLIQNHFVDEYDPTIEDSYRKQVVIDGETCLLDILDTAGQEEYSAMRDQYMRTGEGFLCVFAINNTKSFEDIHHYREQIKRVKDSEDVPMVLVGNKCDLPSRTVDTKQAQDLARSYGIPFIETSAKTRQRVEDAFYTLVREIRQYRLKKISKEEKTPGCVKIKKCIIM

| IC50 [1, 2] | IC50 (wildtype Kras / hSOS1; [2]) | IC50 ([1]; compound nos. 401-703) | IC50 (wildtype Kras / hSOS1; compound nos. 401-703) | Compound |
| --- | --- | --- | --- | --- |
| > 0.5 µM | > 0.5 µM |  |  | Nc1nc2c(-c3c(Cl)cc4c(N5CCNCC(F)(F)C5)nc(OCC56CCCN5C(=O)CC6)nc4c3F)cccc2s1 (stereo not drawn) [Compound 151, 7a-(((7-(2-aminobenzo[d]-thiazol-4-yl)-6-chloro-4-(6,6-difluoro-1,4-diazepan-1-yl)-8-fluoroquinazolin-2-yl)oxy)methyl)hexahydro-3H-pyrrolizin-3-one] |
|  |  | < 0.5 µM | > 0.5 µM | Nc1nc2c(-c3c(Cl)cc4c(N5CC6CCC(C5)N6)nc(OCC5(CN6CCCC6)CC5)nc4c3F)ccc(F)c2s1 [Compound 553, 4-(4-(3,8-diazabicyclo-[3.2.1]-octan-3-yl)-6-chloro-8-fluoro-2-((1-(pyrrolidin-1-ylmethyl)cyclopropyl)meth-oxy)quinazolin-7-yl)-7-fluorobenzo[d]thiazol-2-amine] |
|  |  | > 0.5 µM | > 0.5 µM | Nc1cc(-c2c(Cl)cc3c(N4CCCCCC4)nc(OCC45CCCN4CCC5)nc3c2F)ccc1F [Compound 670, 5-(4-(azepan-1-yl)-6-chloro-8-fluoro-2-((tetrahydro-1H-pyrrolizin-7a(5H)-yl)meth-oxy)quinazolin-7-yl)-2-fluoroaniline] |
|  |  | > 0.5 µM | > 0.5 µM | Cc1ccnc(C(C)C)c1-n1c(=O)nc(N2CC3CCC(C2)N3)c2cc(F)c(-c3cc(O)cc4ccccc34)nc21 [Compound 567, 4-(3,8-diazabicyclo[3.2.1]-octan-3-yl)-6-fluoro-7-(3-hydroxynaphthalen-1-yl)-1-(2-isopropyl-4-methylpyri-din-3-yl)pyrido[2,3-d]pyrim-idin-2(1H)-one] |
|  |  | < 0.5 µM | > 0.5 µM | C#Cc1cccc2cc(O)cc(-c3ccc4c(N5CCNCC(F)(F)C5)nc(OC[C@@]56CCCN5C[C@H](F)C6)nc4c3F)c12 [Compound 609, 4-(4-(6,6-difluoro-1,4-diazepan-1-yl)-8-fluoro-2-(((2R,7aS)-2-fluorotetra-hydro-1H-pyrrolizin-7a(5H)-yl)methoxy)quin-azolin-7-yl)-5-ethynylnaph-thalen-2-ol] |
| > 0.5 µM | > 0.5 µM |  |  | CN1CCC[C@H]1COc1nc(N2CCNCC(F)(F)C2)c2cc(Cl)c(-c3cccc4sc(N)nc34)c(OCc3ccccn3)c2n1 [Compound 155, 4-(6-chloro-4-(6,6-difluoro-1,4-diazepan-1-yl)-2-(((S)-1-methylpyrrolidin-2-yl)-methoxy)-8-(pyridin-2-yl-methoxy)quinazolin-7-yl)-benzo[d]thiazol-2-amine] |
| > 0.5 µM | > 0.5 µM |  |  | CN(C)C1CN(c2nc(N3CCNCC(F)(F)C3)c3cc(Cl)c(-c4cccc5sc(N)nc45)c(F)c3n2)C1 [Compound 135, 4-(6-chloro-4-(6,6-difluoro-1,4-diazepan-1-yl)-2-(3-(dimethylamino)azetidin-1-yl)-8-fluoroquinazolin-7-yl)-benzo[d]thiazol-2-amine] |

The remaining lines, values behind:

| Compound | IC50 [1, 2] | IC50 (wildtype Kras / hSOS1; [2]) | IC50 ([1]; compound nos. 401-703) | IC50 (wildtype Kras / hSOS1; compound nos. 401-703) |
| --- | --- | --- | --- | --- |
| CN1CCC[C@H]1COc1nc(N2CCCC(O)CC2)c2cc(Cl)c(-c3cccc4sc(N)nc34)c(F)c2n1 (stereo partly drawn) [Compound 173, 1-(7-(2-aminobenzo[d]-thiazol-4-yl)-6-chloro-8-fluoro-2-(((S)-1-methyl-pyrrolidin-2-yl)methoxy)-quinazolin-4-yl)azepan-4-ol] | < 0.5 µM | < 0.5 µM |  |  |
| CCCC1CCCN(c2nc(OC[C@@H]3CCCN3C)nc3c(F)c(-c4cccc5sc(N)nc45)c(Cl)cc23)CC1 (stereo partly drawn) [Compound 646, 4-(6-chloro-8-fluoro-2-(((S)-1-methylpyrrolidin-2-yl)-methoxy)-4-(4-propylaze-pan-1-yl)quinazolin-7-yl)-benzo[d]thiazol-2-amine] |  |  | > 0.5 µM | > 0.5 µM |
| Nc1nc2c(-c3c(Cl)cc4c(N5CCC[C@H](N)CC5)nc(OC[C@@]56CCCN5C[C@H](F)C6)nc4c3F)ccc(F)c2s1 [Compound 600, 4-(4-((S)-4-aminoazepan-1-yl)-6-chloro-8-fluoro-2-(((2R,7aS)-2-fluorotetra-hydro-1H-pyrrolizin-7a(5H)-yl)methoxy)quinazolin-7-yl)-7-fluorobenzo[d]thiazol-2-amine] |  |  | < 0.5 µM | > 0.5 µM |
| Nc1nc2c(-c3cc4c(=O)n(CCN5CCCC5)nc(N5CCCOCC5)c4cc3Cl)ccc(F)c2s1 [Compound 484, 7-(2-amino-7-fluorobenzo-[d]thiazol-4-yl)-6-chloro-4-(1,4-oxazepan-4-yl)-2-(2-(pyrrolidin-1-yl)ethyl)phthal-azin-1(2H)-one] |  |  | > 0.5 µM | < 0.5 µM |
| Nc1nc2ccccc2c(-c2ccc3c(N4CC5CCC(C4)N5)nc(OCC45CCCN4CCC5)nc3c2F)c1Cl [Compound 493, 4-(4-(3,8-diazabicyclo-[3.2.1]octan-3-yl)-8-fluoro-2-((tetrahydro-1H-pyrrol-izin-7a(5H)-yl)methoxy)-quinazolin-7-yl)-3-chloro-quinolin-2-amine] |  |  | > 0.5 µM | < 0.5 µM |
| Nc1nc2cc(-c3c(Cl)cc4c(N5CC6CCC(C5)N6)nc(OCC56CCCN5CCC6)nc4c3F)ccc2o1 [Compound 502, 5-(4-(3,8-diazabicyclo-[3.2.1]octan-3-yl)-6-chloro-8-fluoro-2-((tetrahydro-1H-pyrrolizin-7a(5H)-yl)meth-oxy)quinazolin-7-yl)benzo-[d]oxazol-2-amine] |  |  | > 0.5 µM | > 0.5 µM |
| Nc1nc2c(-c3c(Cl)cc4c(N5CCCCCC5)nc(OC[C@@]56CCCN5C[C@H](F)C6)nc4c3F)ccc(F)c2s1 [Compound 499, 4-(4-(azepan-1-yl)-6-chloro-8-fluoro-2-(((2R,7aS)-2-fluorotetrahydro-1H-pyrrol-izin-7a(5H)-yl)methoxy)-quinazolin-7-yl)-7-fluoro-benzo[d]thiazol-2-amine] |  |  | < 0.5 µM | < 0.5 µM |
| Cc1cc2c(N3CCNCC(F)(F)C3)nc(OC[C@@H]3CCCN3C)nc2c(F)c1-c1cccc2sc(N)nc12 [Compound 157, 4-(4-(6,6-difluoro-1,4-diazepan-1-yl)-8-fluoro-6-methyl-2-(((S)-1-methyl-pyrrolidin-2-yl)methoxy)-quinazolin-7-yl)benzo[d]-thiazol-2-amine] | < 0.5 µM | < 0.5 µM |  |  |
| CN(C)CC1(COc2nc(N3CC4CCC(C3)N4)c3ccc(-c4cc(O)cc5ccccc45)c(F)c3n2)CC1 [Compound 501, 4-(4-(3,8-diazabicyclo-[3.2.1]octan-3-yl)-2-((1-((dimethylamino)methyl)-cyclopropyl)methoxy)-8-fluoroquinazolin-7-yl)naph-thalen-2-ol] |  |  | < 0.5 µM | > 0.5 µM |
| CN1CCC[C@H]1COc1nc(N2CCCCC(O)C2)c2cc(Cl)c(-c3cccc4sc(N)nc34)c(F)c2n1 (stereo partly drawn) [Compound 562, 1-(7-(2-aminobenzo[d]-thiazol-4-yl)-6-chloro-8-fluoro-2-(((S)-1-methyl-pyrrolidin-2-yl)methoxy)-quinazolin-4-yl)azepan-3-ol] |  |  | < 0.5 µM | > 0.5 µM |
| Nc1nc2c(-c3c(Cl)cc4c(N5CCNCC(F)(F)C5)nc(OCCCN5CCOCC5)nc4c3F)cccc2s1 [Compound 129, 4-(6-chloro-4-(6,6-difluoro-1,4-diazepan-1-yl)-8-fluoro-2-(3-morpholinopropoxy)-quinazolin-7-yl)benzo[d]-thiazol-2-amine] | > 0.5 µM | < 0.5 µM |  |  |
| Nc1nc2c(-c3c(Cl)cc4c(N5CCCS(=O)(=O)CC5)nc(OC[C@@]56CCCN5C[C@H](F)C6)nc4c3F)ccc(F)c2s1 [Compound 477, 4-(7-(2-amino-7-fluoroben-zo-[d]thiazol-4-yl)-6-chloro-8-fluoro-2-(((2R,7aS)-2-fluorotetrahydro-1H-pyrrolizin-7a(5H)-yl)meth-oxy)quinazolin-4-yl)-1,4-thiazepane 1,1-dioxide] |  |  | < 0.5 µM | < 0.5 µM |
| Cc1ccc(C#N)cc1-c1c(Cl)cc2c(N3CC4CCC(C3)N4)nc(OCC34CCCN3CCC4)nc2c1F [Compound 510, 3-(4-(3,8-diazabicyclo-[3.2.1]octan-3-yl)-6-chloro-8-fluoro-2-((tetrahydro-1H-pyrrolizin-7a(5H)-yl)meth-oxy)quinazolin-7-yl)-4-methylbenzonitrile] |  |  | > 0.5 µM | > 0.5 µM |
| Nc1nc2c(-c3c(Cl)cc4c(N5C6CCNCC5CC6)nc(OC[C@@]56CCCN5C[C@H](F)C6)nc4c3F)ccc(F)c2s1 (stereo partly drawn) [Compound 568, 4-(4-(3,9-diazabicyclo-[4.2.1]-nonan-9-yl)-6-chloro-8-fluoro-2-(((2R,7aS)-2-fluorotetrahydro-1H-pyrrol-izin-7a(5H)-yl)methoxy)-quinazolin-7-yl)-7-fluoro-benzo[d]thiazol-2-amine] |  |  | < 0.5 µM | > 0.5 µM |
| CO[C@@H]1CN(C)C[C@H]1Oc1nc(N2CC3CCC(C2)N3)c2cc(Cl)c(-c3ccc(F)c4sc(N)nc34)c(F)c2n1 [Compound 448, 4-(4-(3,8-diazabicyclo-[3.2.1]-octan-3-yl)-6-chloro-8-fluoro-2-(((3R,4R)-4-methoxy-1-methylpyrrolidin-3-yl)oxy)quinazolin-7-yl)-7-fluorobenzo[d]thiazol-2-amine] |  |  | < 0.5 µM | < 0.5 µM |
| Cc1ccnc(C(C)C)c1-n1c(=O)nc(N2CCNCC(F)(F)C2)c2cc(F)c(-c3cccc4sc(N)nc34)nc21 [Compound 111, 7-(2-aminobenzo[d]thiazol-4-yl)-4-(6,6-difluoro-1,4-diazepan-1-yl)-6-fluoro-1-(2-isopropyl-4-methylpyr-idin-3-yl)pyrido[2,3-d]pyr-imidin-2(1H)-one] | > 0.5 µM | > 0.5 µM |  |  |
| COC1CCCCN(c2nc(OC[C@@H]3CCCN3C)nc3c(F)c(-c4cccc5sc(N)nc45)c(Cl)cc23)C1 (stereo partly drawn) [Compound 524, 4-(6-chloro-8-fluoro-4-(3-methoxyazepan-1-yl)-2-(((S)-1-methylpyrrolidin-2-yl)methoxy)quinazolin-7-yl)benzo[d]thiazol-2-amine] |  |  | < 0.5 µM | > 0.5 µM |
